From patent US11267822B2, “BET bromodomain protein degraders with cleavable linkers” (THE REGENTS OF THE UNIVERSITY OF MICHIGAN, priority 2017, dated 2022)

These compounds were tested on MOLM13 (assay: Cell growth inhibition, CellTiter-Glo Luminescent Cell Viability Assay, MOLM13). Conditions: Homo sapiens, MOLM-13, 96 h, MOLM13 cells, 4 days.
Format: cell-based
Method: (§1) Cell growth inhibitory activity of representative Compounds of the Disclosure was determined using the CellTiter-Glo® Luminescent Cell Viability Assay. Cells were seeded in 384-well white opaque cell culture plates at a density of 2,000 cells/well with serially diluted compounds and incubated at 37° C. in an atmosphere of 95% air and 5% CO2 for 4 days. Cell viability was determined using the CellTiter-Glo® Luminescent Cell Viability Assay Kit (Promega, Madison, Wis.) according to the manufacture's instruction. Briefly, a volume of CellTiter-Glo® Reagent equal to the volume of cell culture medium was added to each well, and then the plates were incubated at room temperature for 10-20 minutes. The luminescent signal was measured using a Tecan Infinite M1000 multimode microplate reader (Tecan, Morrisville, N.C.). The half maximal inhibitory concentration (IC50) in Table 3 was calculated using the GraphPad Prism 5 software (GraphPad Software, La Jolla, Calif.).

SMILES | IC50 [nM]
Cc1nnc2n1-c1sc(C#Cc3cnn(CCCC(=O)OCCCNc4cccc5c4CN(C4CCC(=O)NC4=O)C5=O)c3)c(Cc3ccccc3)c1COC2 (stereo not drawn) [Cpd. No. 18, 3-((2-(2,6-dioxopiperidin-3-yl)-1-oxoisoindolin-4-yl)amino)propyl 4-(4-((3-benzyl-9-methyl-4H,6H-thieno[2,3-e][1,2,4]triazolo[3,4-c][1,4]oxazepin-2-yl)ethynyl)-1H-pyrazol-1-yl)butanoate] | 7.3
Cc1nnc2n1-c1sc(C#Cc3cnn(CCCOC(=O)CCCCc4cccc5c4CN(C4CCC(=O)NC4=O)C5=O)c3)c(Cc3ccccc3)c1COC2 (stereo not drawn) [compound 19, 3-(4-((3-benzyl-9-methyl-4H,6H-thieno[2,3-e][1,2,4]triazolo[3,4-c][1,4]oxazepin-2-yl)ethynyl)-1H-pyrazol-1-yl)propyl 5-(2-(2,6-dioxopiperidin-3-yl)-1-oxoisoindolin-4-yl)pentanoate] | 7.3
Cc1nnc2n1-c1sc(C#Cc3cnn(CCCOC(=O)CCCc4cccc5c4CN(C4CCC(=O)NC4=O)C5=O)c3)c(Cc3ccccc3)c1COC2 (stereo not drawn) [compound 20, 3-(4-((3-benzyl-9-methyl-4H,6H-thieno[2,3-e][1,2,4]triazolo[3,4-c][1,4]oxazepin-2-yl)ethynyl)-1H-pyrazol-1-yl)propyl 4-(2-(2,6-dioxopiperidin-3-yl)-1-oxoisoindolin-4-yl)butanoate] | 22.6
Cc1nnc2n1-c1sc(C#Cc3cnn(CCCC(=O)OCCCN4CCN(c5cccc6c5C(=O)N(C5CCC(=O)NC5=O)C6=O)CC4)c3)c(Cc3ccccc3)c1COC2 (stereo not drawn) [compound 24, 3-(4-(2-(2,6-dioxopiperidin-3-yl)-1,3-dioxoisoindolin-4-yl)piperazin-1-yl)propyl 4-(4-((3-benzyl-9-methyl-4H,6H-thieno[2,3-e][1,2,4]triazolo[3,4-c][1,4]oxazepin-2-yl)ethynyl)-1H-pyrazol-1-yl)butanoate] | 17.6
Cc1nnc2n1-c1sc(C#Cc3cnn(CCCC(=O)OCCCCc4cccc5c4CN(C4CCC(=O)NC4=O)C5=O)c3)c(Cc3ccccc3)c1COC2 (stereo not drawn) [compound 35, 4-(2-(2,6-dioxopiperidin-3-yl)-1-oxoisoindolin-4-yl)butyl 4-(4-((3-benzyl-9-methyl-4H,6H-thieno[2,3-e][1,2,4]triazolo[3,4-c][1,4]oxazepin-2-yl)ethynyl)-1H-pyrazol-1-yl)butanoate] | 4.9
Cc1nnc2n1-c1sc(C#Cc3cnn(CCCC(=O)OCCCc4cccc5c4CN(C4CCC(=O)NC4=O)C5=O)c3)c(Cc3ccccc3)c1COC2 (stereo not drawn) [compound 36, 3-(2-(2,6-dioxopiperidin-3-yl)-1-oxoisoindolin-4-yl)propyl 4-(4-((3-benzyl-9-methyl-4H,6H-thieno[2,3-e][1,2,4]triazolo[3,4-c][1,4]oxazepin-2-yl)ethynyl)-1H-pyrazol-1-yl)butanoate] | 4.6

Continued, values first:

IC50 [nM] | SMILES
1.1 | Cc1c(C#Cc2cnn(CCCC(=O)OCCCN3CCC(Nc4cccc5c4CN(C4CCC(=O)NC4=O)C5=O)CC3)c2)sc2c1C(c1ccc(Cl)cc1)=N[C@@H](CC(=O)N1CCN(C)CC1)c1nnc(C)n1-2 (stereo partly drawn) [Cpd. No. 1, 3-(4-((2-(2,6-dioxopiperidin-3-yl)-1-oxoisoindolin-4-yl)amino)piperidin-1-yl)propyl 4-(4-(((S)-4-(4-chlorophenyl)-3,9-dimethyl-6-(2-(4-methylpiperazin-1-yl)-2-oxoethyl)-6H-thieno[3,2-f][1,2,4]triazolo[4,3-a][1,4]diazepin-2-yl)ethynyl)-1H-pyrazol-1-yl)butanoate]
0.1 | Cc1c(C#Cc2cnn(CCCC(=O)OCCCOc3cccc4c3CN(C3CCC(=O)NC3=O)C4=O)c2)sc2c1C(c1ccc(Cl)cc1)=N[C@@H](C)c1nnc(C)n1-2 (stereo partly drawn) [Cpd. No. 5, 3-((2-(2,6-dioxopiperidin-3-yl)-1-oxoisoindolin-4-yl)oxy)propyl 4-(4-(((S)-4-(4-chlorophenyl)-3,6,9-trimethyl-6H-thieno[3,2-f][1,2,4]triazolo[4,3-a][1,4]diazepin-2-yl)ethynyl)-1H-pyrazol-1-yl)butanoate]
0.2 | Cc1c(C#Cc2cnn(CCCC(=O)OCCCOc3cccc4c3CN(C3CCC(=O)NC3=O)C4=O)c2)sc2c1C(c1ccc(Cl)cc1)=N[C@@H](CC(=O)N1CCN(C)CC1)c1nnc(C)n1-2 (stereo partly drawn) [compound 9, 3-((2-(2,6-dioxopiperidin-3-yl)-1-oxoisoindolin-4-yl)oxy)propyl 4-(4-(((S)-4-(4-chlorophenyl)-3,9-dimethyl-6-(2-(4-methylpiperazin-1-yl)-2-oxoethyl)-6H-thieno[3,2-f][1,2,4]triazolo[4,3-a][1,4]diazepin-2-yl)ethynyl)-1H-pyrazol-1-yl)butanoate]
4 | Cc1c(C#Cc2cnn(CCCC(=O)OCCOCCOCCOc3cccc4c3CN(C3CCC(=O)NC3=O)C4=O)c2)sc2c1C(c1ccc(Cl)cc1)=N[C@@H](CC(=O)N1CCN(C)CC1)c1nnc(C)n1-2 (stereo partly drawn) [compound 10, 2-(2-(2-((2-(2,6-dioxopiperidin-3-yl)-1-oxoisoindolin-4-yl)oxy)ethoxy)ethoxy)ethyl 4-(4-(((S)-4-(4-chlorophenyl)-3,9-dimethyl-6-(2-(4-methylpiperazin-1-yl)-2-oxoethyl)-6H-thieno[3,2-f][1,2,4]triazolo[4,3-a][1,4]diazepin-2-yl)ethynyl)-1H-pyrazol-1-yl)butanoate]
9.1 | Cc1nnc2n1-c1sc(C#Cc3cnn(CC(=O)OCCCOc4cccc5c4CN(C4CCC(=O)NC4=O)C5=O)c3)c(Cc3ccccc3)c1COC2 (stereo not drawn) [compound 37, 3-((2-(2,6-dioxopiperidin-3-yl)-1-oxoisoindolin-4-yl)oxy)propyl 2-(4-((3-benzyl-9-methyl-4H,6H-thieno[2,3-e][1,2,4]triazolo[3,4-c][1,4]oxazepin-2-yl)ethynyl)-1H-pyrazol-1-yl)acetate]

Same assay, conditions: MOLM13 cells, 4 days

IC50 [nM] | SMILES
17.3 | Cc1c(C#Cc2cnn(CC(=O)OCC#Cc3cccc4c3CN(C3CCC(=O)NC3=O)C4=O)c2)sc2c1C(c1ccc(Cl)cc1)=N[C@@H](C)c1nnc(C)n1-2 (stereo partly drawn) [Cpd. No. 4, 3-(2-(2,6-dioxopiperidin-3-yl)-1-oxoisoindolin-4-yl)prop-2-yn-1-yl 2-(4-(((S)-4-(4-chlorophenyl)-3,6,9-trimethyl-6H-thieno[3,2-f][1,2,4]triazolo[4,3-a][1,4]diazepin-2-yl)ethynyl)-1H-pyrazol-1-yl)acetate]

These compounds were tested on MDA-MB-231 (assay: Cell growth inhibition, CellTiter-Glo Luminescent Cell Viability Assay, MDA-MB-231). Conditions: Homo sapiens, MDA-MB-231, 96 h, MDA-MB-231 cells, 4 days.
Format: cell-based
Method: as §1

SMILES | IC50 [nM]
Cc1nnc2n1-c1sc(C#Cc3cnn(CCCC(=O)OCCOCCN4CCC(Nc5cccc6c5CN(C5CCC(=O)NC5=O)C6=O)CC4)c3)c(Cc3ccccc3)c1COC2 (stereo not drawn) [compound 26, 2-(2-(4-((2-(2,6-dioxopiperidin-3-yl)-1-oxoisoindolin-4-yl)amino)piperidin-1-yl)ethoxy)ethyl 4-(4-((3-benzyl-9-methyl-4H,6H-thieno[2,3-e][1,2,4]triazolo[3,4-c][1,4]oxazepin-2-yl)ethynyl)-1H-pyrazol-1-yl)butanoate] | 24.1
Cc1nnc2n1-c1sc(C#Cc3cnn(CCCC(=O)OCCOCCOCCN4CCC(Nc5cccc6c5CN(C5CCC(=O)NC5=O)C6=O)CC4)c3)c(Cc3ccccc3)c1COC2 (stereo not drawn) [compound 27, 2-(2-(2-(4-((2-(2,6-dioxopiperidin-3-yl)-1-oxoisoindolin-4-yl)amino)piperidin-1-yl)ethoxy)ethoxy)ethyl 4-(4-((3-benzyl-9-methyl-4H,6H-thieno[2,3-e][1,2,4]triazolo[3,4-c][1,4]oxazepin-2-yl)ethynyl)-1H-pyrazol-1-yl)butanoate] | 23.3

Now from value to compound:

IC50 [nM] | SMILES
2.5 | Cc1c(C#Cc2cnn(CCCC(=O)OCCCN3CCC(Nc4cccc5c4CN(C4CCC(=O)NC4=O)C5=O)CC3)c2)sc2c1C(c1ccc(Cl)cc1)=N[C@@H](CC(=O)N1CCN(C)CC1)c1nnc(C)n1-2 (stereo partly drawn) [Cpd. No. 1, 3-(4-((2-(2,6-dioxopiperidin-3-yl)-1-oxoisoindolin-4-yl)amino)piperidin-1-yl)propyl 4-(4-(((S)-4-(4-chlorophenyl)-3,9-dimethyl-6-(2-(4-methylpiperazin-1-yl)-2-oxoethyl)-6H-thieno[3,2-f][1,2,4]triazolo[4,3-a][1,4]diazepin-2-yl)ethynyl)-1H-pyrazol-1-yl)butanoate]
0.1 | Cc1c(C#Cc2cnn(CCCC(=O)OCCCOc3cccc4c3CN(C3CCC(=O)NC3=O)C4=O)c2)sc2c1C(c1ccc(Cl)cc1)=N[C@@H](C)c1nnc(C)n1-2 (stereo partly drawn) [Cpd. No. 5, 3-((2-(2,6-dioxopiperidin-3-yl)-1-oxoisoindolin-4-yl)oxy)propyl 4-(4-(((S)-4-(4-chlorophenyl)-3,6,9-trimethyl-6H-thieno[3,2-f][1,2,4]triazolo[4,3-a][1,4]diazepin-2-yl)ethynyl)-1H-pyrazol-1-yl)butanoate]
12.2 | Cc1c(C#Cc2cnn(CCCC(=O)OCCOCCN3CCC(Nc4cccc5c4CN(C4CCC(=O)NC4=O)C5=O)CC3)c2)sc2c1C(c1ccc(Cl)cc1)=N[C@@H](CC(=O)N1CCN(C)CC1)c1nnc(C)n1-2 (stereo partly drawn) [compound 13, 2-(2-(4-((2-(2,6-dioxopiperidin-3-yl)-1-oxoisoindolin-4-yl)amino)piperidin-1-yl)ethoxy)ethyl 4-(4-(((S)-4-(4-chlorophenyl)-3,9-dimethyl-6-(2-(4-methylpiperazin-1-yl)-2-oxoethyl)-6H-thieno[3,2-f][1,2,4]triazolo[4,3-a][1,4]diazepin-2-yl)ethynyl)-1H-pyrazol-1-yl)butanoate]
20.7 | Cc1c(C#Cc2cnn(CCCC(=O)OCCOCCOCCN3CCC(Nc4cccc5c4CN(C4CCC(=O)NC4=O)C5=O)CC3)c2)sc2c1C(c1ccc(Cl)cc1)=N[C@@H](CC(=O)N1CCN(C)CC1)c1nnc(C)n1-2 (stereo partly drawn) [compound 14, 2-(2-(2-(4-((2-(2,6-dioxopiperidin-3-yl)-1-oxoisoindolin-4-yl)amino)piperidin-1-yl)ethoxy)ethoxy)ethyl 4-(4-(((S)-4-(4-chlorophenyl)-3,9-dimethyl-6-(2-(4-methylpiperazin-1-yl)-2-oxoethyl)-6H-thieno[3,2-f][1,2,4]triazolo[4,3-a][1,4]diazepin-2-yl)ethynyl)-1H-pyrazol-1-yl)butanoate]
> 100 | Cc1nnc2n1-c1sc(C#Cc3cnn(CC(=O)OCC#Cc4cccc5c4CN(C4CCC(=O)NC4=O)C5=O)c3)c(Cc3ccccc3)c1COC2 (stereo not drawn) [compound 39, 3-(2-(2,6-dioxopiperidin-3-yl)-1-oxoisoindolin-4-yl)prop-2-yn-1-yl 2-(4-((3-benzyl-9-methyl-4H,6H-thieno[2,3-e][1,2,4]triazolo[3,4-c][1,4]oxazepin-2-yl)ethynyl)-1H-pyrazol-1-yl)acetate]
24.3 | Cc1nnc2n1-c1sc(C#Cc3cnn(CC(=O)OCCC#Cc4cccc5c4CN(C4CCC(=O)NC4=O)C5=O)c3)c(Cc3ccccc3)c1COC2 (stereo not drawn) [compound 40, 4-(2-(2,6-dioxopiperidin-3-yl)-1-oxoisoindolin-4-yl)but-3-yn-1-yl 2-(4-((3-benzyl-9-methyl-4H,6H-thieno[2,3-e][1,2,4]triazolo[3,4-c][1,4]oxazepin-2-yl)ethynyl)-1H-pyrazol-1-yl)acetate]

Same assay, conditions: MDA-MB-231 cells, 4 days

IC50 [nM] | SMILES
276 | Cc1c(C#Cc2cnn(CC(=O)OCC#Cc3cccc4c3CN(C3CCC(=O)NC3=O)C4=O)c2)sc2c1C(c1ccc(Cl)cc1)=N[C@@H](C)c1nnc(C)n1-2 (stereo partly drawn) [Cpd. No. 4, 3-(2-(2,6-dioxopiperidin-3-yl)-1-oxoisoindolin-4-yl)prop-2-yn-1-yl 2-(4-(((S)-4-(4-chlorophenyl)-3,6,9-trimethyl-6H-thieno[3,2-f][1,2,4]triazolo[4,3-a][1,4]diazepin-2-yl)ethynyl)-1H-pyrazol-1-yl)acetate]
